# Reference: the supplement of paper PMC10307832
# Tests used:
# Assay in all cases: relative viability (nuclei count vs DMSO), 5 days (fraction); higher = more cells survive
# [1] = compound: COc1cc2ncn(-c3cc(OCc4ccccc4C(F)(F)F)c(C(N)=O)s3)c2cc1OC + O=C(c1cc(Cc2n[nH]c(=O)c3ccccc23)ccc1F)N1CCN(C(=O)C2CC2)CC1 [Olaparib] (partner 8 µM)
# Procedure, shortened: (§1)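 Values are medians from duplicate plates. Each reflects relative viability, defined as the nuclei count of treated wells over that of vehicle wells. Lung cancer cell lines in 1536-well plates were pin-tool dosed one day after seeding with one drug alone or with a fixed anchor-drug dose plus five library-drug doses (not always all listed) in √10 steps, then fixed, stained and imaged at 4× after 5 days.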
# [2] = compound: COc1cc2ncn(-c3cc(OCc4ccccc4C(F)(F)F)c(C(N)=O)s3)c2cc1OC + NC(=O)Nc1cc(-c2cccc(F)c2)sc1C(=O)N[C@H]1CCCNC1 [AZD7762] (partner 0.2 µM)
# Procedure, shortened: as §1
# [3] = compound: COc1cc2ncn(-c3cc(OCc4ccccc4C(F)(F)F)c(C(N)=O)s3)c2cc1OC + CS(=O)(=O)CCNCc1ccc(-c2ccc3ncnc(Nc4ccc(OCc5cccc(F)c5)c(Cl)c4)c3c2)o1 [Lapatinib] (partner 2 µM)
# Procedure, shortened: as §1
# [4] = compound: COc1cc2ncn(-c3cc(OCc4ccccc4C(F)(F)F)c(C(N)=O)s3)c2cc1OC + Nc1ncn([C@H]2C[C@H](O)[C@@H](CO)O2)c(=O)n1 [Decitabine] (partner 2 µM)
# Procedure, shortened: as §1
Cell Line,relative viability ([1]; first compound 0.05 µM),relative viability ([1]; first compound 0.1581 µM),relative viability ([1]; first compound 0.5 µM),relative viability ([1]; first compound 1.581 µM),relative viability ([1]; first compound 5 µM),relative viability ([2]; first compound 0.05 µM),relative viability ([2]; first compound 0.1581 µM),relative viability ([2]; first compound 0.5 µM),relative viability ([2]; first compound 1.581 µM),relative viability ([2]; first compound 5 µM),relative viability ([3]; first compound 0.05 µM),relative viability ([3]; first compound 0.1581 µM),relative viability ([3]; first compound 0.5 µM),relative viability ([3]; first compound 1.581 µM),relative viability ([3]; first compound 5 µM),relative viability ([4]; first compound 0.05 µM),relative viability ([4]; first compound 0.1581 µM),relative viability ([4]; first compound 0.5 µM),relative viability ([4]; first compound 1.581 µM),relative viability ([4]; first compound 5 µM)
201T,0.747,0.83,0.871,0.27,0.246,0.642,0.668,0.554,0.442,0.242,1.04,1.03,1.01,0.708,0.299,0.866,0.877,0.851,0.562,0.251
A-427,0.745,0.802,0.54,0.267,0.169,0.793,0.68,0.682,0.231,0.153,1.02,1.12,1,0.418,0.116,0.619,0.6,0.498,0.399,0.205
ABC-1,0.705,0.837,0.64,0.477,0.429,0.782,0.487,0.741,0.631,1.01,1.18,0.723,1.11,1.14,1.2,1.21,1.18,0.761,0.513,0.357
BEN,1.11,1.01,0.636,0.425,0.359,0.788,0.735,0.678,0.464,0.389,0.696,0.526,0.56,0.256,0.212,0.816,0.828,0.526,0.403,0.408
CAL-12T,0.563,0.676,0.415,0.189,0.188,0.555,0.598,0.514,0.239,0.199,0.647,0.708,0.379,0.228,0.156,–,–,–,–,–
COR-L23,0.307,0.282,0.138,0.0966,0.109,–,–,–,–,–,0.891,1.01,0.798,0.143,0.107,0.435,0.394,0.305,0.145,0.159
COR-L 105,0.709,0.687,0.595,0.335,0.369,–,–,–,–,–,0.373,0.365,0.277,0.255,0.292,0.65,0.601,0.572,0.438,0.278
Calu-6,0.541,0.454,0.172,0.086,0.0935,–,–,–,–,–,1.02,0.872,0.315,0.129,0.128,–,–,–,–,–
ChaGo-K-1,0.398,0.389,0.312,0.208,0.12,0.896,0.853,0.882,0.237,0.16,–,–,–,–,–,0.567,0.504,0.43,0.255,0.162
EKVX,0.888,0.934,0.631,0.206,0.222,0.841,0.48,0.655,0.416,0.33,0.176,0.265,0.206,0.165,0.178,0.324,0.381,0.273,0.175,0.204
EMC-BAC-2,0.467,0.48,0.359,0.259,0.216,1.18,1.21,1.08,0.357,0.223,0.998,0.944,0.786,0.228,0.216,1.12,1.05,0.963,0.504,0.253
EPLC-272H,0.177,0.221,0.0762,0.0805,0.146,0.191,0.334,0.247,0.107,0.13,0.976,0.867,0.527,0.111,0.0981,0.356,0.362,0.168,0.113,0.133
H3255,0.532,0.534,0.541,0.415,0.332,0.946,0.922,0.625,0.395,0.324,0.24,0.261,0.206,0.17,0.149,0.518,0.674,0.625,0.312,0.294
HARA,0.317,–,0.261,0.131,0.105,0.301,–,0.201,0.173,0.112,0.74,0.797,0.7,0.169,0.0753,0.383,–,0.367,0.202,0.118
HCC-15,0.566,0.446,0.232,0.131,0.14,1.18,1.05,1.03,0.21,0.154,0.861,0.731,0.602,0.135,0.114,0.592,0.581,0.248,0.176,0.119
HCC-44,1.06,1.04,0.877,0.39,0.372,1.03,1.04,0.991,0.549,0.375,1.06,0.976,0.987,0.0934,0.171,0.987,0.984,0.906,0.433,0.258
HCC-78,0.939,0.927,0.645,0.601,0.468,0.795,0.653,0.493,0.565,0.422,0.75,0.429,0.542,0.566,0.804,0.688,0.652,0.671,0.473,0.446
HCC-366,0.204,0.273,0.0764,0.0193,0.0147,0.51,0.431,0.385,0.0175,0.0105,1.11,1.02,0.359,0.0141,0.0131,0.255,0.372,0.326,0.0359,0.0203
HCC-827,0.575,0.547,0.452,0.306,0.179,0.229,0.246,0.185,0.201,0.161,0.165,0.23,0.207,0.13,0.206,0.344,0.346,0.328,0.234,0.28
HOP-62,0.387,0.38,0.302,–,0.116,0.523,0.714,0.316,0.118,0.0755,1.01,1.08,0.829,0.233,0.121,0.227,0.266,0.237,0.186,0.141

Cell Line,relative viability ([1]; first compound 0.05 µM),relative viability ([1]; first compound 0.1581 µM),relative viability ([1]; first compound 0.5 µM),relative viability ([1]; first compound 1.581 µM),relative viability ([1]; first compound 5 µM),relative viability ([2]; first compound 0.05 µM),relative viability ([2]; first compound 0.1581 µM),relative viability ([2]; first compound 0.5 µM),relative viability ([2]; first compound 1.581 µM),relative viability ([2]; first compound 5 µM),relative viability ([3]; first compound 0.05 µM),relative viability ([3]; first compound 0.1581 µM),relative viability ([3]; first compound 0.5 µM),relative viability ([3]; first compound 1.581 µM),relative viability ([3]; first compound 5 µM),relative viability ([4]; first compound 0.05 µM),relative viability ([4]; first compound 0.1581 µM),relative viability ([4]; first compound 0.5 µM),relative viability ([4]; first compound 1.581 µM),relative viability ([4]; first compound 5 µM)
IA-LM,0.75,0.602,0.123,0.0768,0.0783,–,–,–,–,–,0.617,0.49,0.0998,0.083,0.0955,–,–,–,–,–
LC-2-ad,0.431,0.593,0.466,0.173,0.176,0.769,0.896,0.576,0.14,0.129,0.811,0.592,0.511,0.119,0.0933,0.824,0.761,0.63,0.203,0.2
LCLC-103H,0.687,0.768,0.651,0.281,0.212,0.75,0.876,0.707,0.375,0.242,–,–,–,–,–,0.729,0.785,0.657,0.355,0.257
NCI-H441,0.349,0.34,0.242,0.175,0.146,1.13,0.73,0.437,0.198,0.171,–,–,–,–,–,0.229,0.243,0.18,0.137,0.164
NCI-H520,0.198,0.247,0.193,0.182,0.142,–,–,–,–,–,1.01,0.814,0.387,0.172,0.149,0.482,0.525,0.261,0.217,0.219
NCI-H522,0.51,0.714,0.621,0.517,0.337,1.01,0.769,0.766,0.461,0.417,–,–,–,–,–,0.574,0.628,0.54,0.618,0.36
NCI-H661,0.68,0.681,0.349,0.332,0.274,–,–,–,–,–,0.431,0.517,0.467,0.18,0.251,0.566,0.496,0.363,0.277,0.237
NCI-H1563,–,–,–,–,–,–,–,–,–,–,1.04,1.02,0.877,0.748,0.588,–,–,–,–,–
NCI-H1648,0.74,0.596,0.366,0.242,0.261,0.699,0.721,0.637,0.25,0.214,–,–,–,–,–,0.473,0.602,0.345,0.235,0.225
NCI-H1650,0.757,0.659,0.305,0.114,0.204,–,–,–,–,–,0.789,0.853,0.293,0.196,0.186,0.396,0.382,0.329,0.219,0.138
NCI-H1703,0.416,0.616,0.488,0.261,0.066,0.141,0.131,0.104,0.119,0.104,1.28,1.44,0.564,0.17,0.235,–,–,–,–,–
NCI-H2009,0.604,0.623,0.171,0.107,0.0932,–,–,–,–,–,0.868,0.777,0.318,0.169,0.146,0.344,0.301,0.259,0.197,0.17
NCI-H2023,0.416,0.392,0.16,0.0751,0.0692,–,–,–,–,–,0.936,0.975,0.274,0.0863,0.095,0.203,0.213,0.159,0.0779,0.0772
NCI-H2228,0.224,0.721,0.201,0.157,0.194,–,–,–,–,–,1.26,0.998,0.297,0.162,0.251,–,–,–,–,–
NCI-H2342,0.389,0.437,0.407,0.388,0.421,0.593,0.476,0.374,0.38,0.425,–,–,–,–,–,0.628,0.701,0.626,0.569,0.528
SK-LU-1,0.39,0.372,0.272,0.197,0.207,–,–,–,–,–,0.833,0.842,0.427,0.246,0.197,0.663,0.487,0.494,0.317,0.304
SK-MES-1,0.62,0.526,0.309,0.165,0.186,–,–,–,–,–,0.445,0.459,0.482,–,0.335,0.371,0.393,0.273,0.166,0.172
SW 900,0.778,0.892,0.601,0.201,0.171,0.575,0.538,0.565,0.279,0.156,–,–,–,–,–,0.482,0.447,0.425,0.354,0.256
SW 1573,0.442,0.428,0.188,0.103,0.119,–,–,–,–,–,1.14,0.445,0.918,0.217,0.739,0.572,0.413,0.223,0.0976,0.126
UMC-11,0.313,0.293,0.21,0.185,0.159,–,–,–,–,–,0.991,0.917,0.348,0.195,0.136,0.309,0.595,0.265,0.253,0.251
